The text below walks through data of US4772589A, “Etoposide solution in NMP” (Bristol-Myers, priority 1986, dated 1988).

Each structure is given as a SMILES string. In brackets after ≈: the same amount, converted by molar mass.

For data set [1] the following is noted: water, ethanol, ether, chloroform, benzene, ethyl acetate, and carbon disulfide; cited from earlier work.
Data set [2] can be described thus: Etoposide solubility in various solvents. The format is physicochemical. From the text: The high etoposide concentration achievable renders the solution useful as gelatin capsule fill. Table III compares the solubility of etoposide in various solvents.
For data set [3] the following is noted: oral gelatin capsule vs IV; cited from earlier work.
The nature of data set [4]: Crystallization on dilution with water or parenteral vehicle.

The solubility is how much of the substance goes into solution per volume.

With `CN1CCCC1=O` [1-Methyl-2-pyrrolidinone, 1-methyl-2-pyrrolidinone], the Miscibility result in data set [1] is “miscible”.

`COc1cc([C@@H]2c3cc4c(cc3[C@@H](O[C@@H]3O[C@@H]5CO[C@@H](C)O[C@H]5[C@H](O)[C@H]3O)[C@H]3COC(=O)[C@H]23)OCO4)cc(OC)c1O` [etoposide, 4'-demethylepipodophyllotoxin-9-(4,6-O(R)-ethylidine-β-D-glucopyranoside)]: the solubility in data set [2] (1-methyl-2-pyrrolidinone, organic solvent or mixture, solvent: 1-Methyl-2-pyrrolidinone) was greater than 500 mg/mL; in data set [2] (benzyl alcohol, organic solvent or mixture, solvent: Benzyl Alcohol), 104 mg/mL (≈ 177 mM); in data set [2] (dimethylisosorbide, organic solvent or mixture, solvent: Dimethylisosorbide), 320 mg/mL (≈ 544 mM); in data set [2] (ethanol, organic solvent or mixture, solvent: Ethanol) it was less than 1 mg/mL; in data set [2] (propylene glycol, organic solvent or mixture, solvent: Propylene Glycol), 11 mg/mL (≈ 18.7 mM); in data set [2] (water, solvent: Water), 0.1 mg/mL (≈ 0.17 mM). The “Gelatin capsule dose relative to IV dose for equivalent blood level” value in data set [3] is recorded as “twice as high”. Also, the “Crystallization on dilution with water” value in data set [4] (solution in 1-ethyl-2-pyrrolidinone, diluted with water to 0.5-5 mg/ml) is “rapid deposit of etoposide crystals”; in data set [4] (solution in 2-pyrrolidinone, diluted with water to 0.5-5 mg/ml), “rapid deposit of etoposide crystals”; in data set [4] (solution in dimethylacetamide, diluted with water to 0.5-5 mg/ml), “rapid deposit of etoposide crystals”; in data set [4] (solution in dimethylformamide, diluted with water to 0.5-5 mg/ml), “rapid deposit of etoposide crystals”; in data set [4] (solution in dimethylisosorbide, diluted with water to 0.5-5 mg/ml), “rapid deposit of etoposide crystals”; in data set [4] (solution in ethanol, diluted with water to 0.5-5 mg/ml) it was “rapid deposit of etoposide crystals”. Besides, the “Crystallization on dilution with water” value in data set [4] (solution in polyethylene glycol-300, diluted with water to 0.5-5 mg/ml) is on record as “rapid deposit of etoposide crystals”; in data set [4] (solution in propylene glycol, diluted with water to 0.5-5 mg/ml) it was “rapid deposit of etoposide crystals”.
